According to patent publication US20240115549A1, “TREATMENT OF MENTAL DISORDERS” (GH Research Ireland Limited, priority 2022, published 2024):

Columns and labels:
[1] = LC-MS/MS of 5-MeO-DMT, bufotenine and 5-MIAA in breastmilk, serum and urine of a treated PPD patient; infant dose estimates; settings: for Breastmilk concentration / Serum concentration / Urine concentration: second PPD patient, LC-MS/MS
[2] = Pharmacokinetics of 5-MeO-DMT and bufotenine after inhalation; format: in vivo, human
[3] = 5 kg infant, three feeds of 250 ml
[4] = 8.5 hrs after last dose, inhaled 5-MeO-DMT
[5] = 24.0 hrs after last dose, inhaled 5-MeO-DMT
[6] = 120.0 hrs after last dose, inhaled 5-MeO-DMT
[7] = timepoint −24.0 hrs (pre-dosing), inhaled 5-MeO-DMT 6 mg then 12 mg

With COc1ccc2[nH]cc(CCN(C)C)c2c1 [5-MeO-DMT] the “DID per kg infant weight” value [1, 3] was 0.0001385 mg/kg/day, the “Total exposure of the infant (DID)” value [1, 3] was 0.0006924 mg/day and the “Detection in breastmilk” value ([1]; after 24 hours) was “did not detect any 5-MeO-DMT”. The “Serum concentration at timepoints after 1 hour” value ([1]; all subsequent timepoints) was “below the lower limit of quantification”, the Breastmilk concentration ([1]; 1.0 hrs after last dose, inhaled 5-MeO-DMT) was 2167.0 pg/mL and the Breastmilk concentration ([1]; 2.5 hrs after last dose, inhaled 5-MeO-DMT) was 560.6 pg/mL. The Breastmilk concentration [1, 4] was 42.1 pg/mL, the Breastmilk concentration [1, 5] was “BLG” and the Breastmilk concentration [1, 6] was “BLQ”. The Breastmilk concentration [1, 7] was “BLQ”, the concentration at 1 h ([1]; female, human, serum, inhaled) was 133 µg/mL and the Serum concentration ([1]; serum, 1.0 hrs after last dose, inhaled 5-MeO-DMT) was 0.0001329 µg/mL. For the same compound, the Serum concentration ([1]; serum, 2.5 hrs after last dose, inhaled 5-MeO-DMT) was “BLQ”, the Serum concentration ([1]; serum, 24.0 hrs after last dose, inhaled 5-MeO-DMT) was “BLQ” and the Serum concentration ([1]; serum, 120.0 hrs after last dose, inhaled 5-MeO-DMT) was “BLQ”. The Serum concentration ([1]; serum, timepoint −24.0 hrs (pre-dosing), inhaled 5-MeO-DMT 6 mg then 12 mg) was “BLQ”, the Urine concentration [1, 4] was “BLQ” and the Urine concentration [1, 5] was “BLQ”. For the same compound, the Urine concentration [1, 6] was “BLQ”, the Urine concentration [1, 7] was “BLQ” and the Detectability in plasma ([2]; 3 hours after inhalation, 6-18 mg) was “no longer detectable”. For the same compound, the “Accumulation upon repeated administration” value ([2]; repeat within 1 to 4 hours) was “No accumulation”.
